From the RepoRT retention time repository (doi:10.1016/j.foodchem.2021.129757)
One block for each compound: values may come before it.

Assays:
Details in all cases: stereoisomer not certain
[1] = RP, 150 × 2.1 mm, 2.6 µm, 40 °C, 0.35 mL/min, estimated dead time 0.94 min; A: water + 0.1% formic acid, pH 3; B: acetonitrile + 0.1% formic acid, pH 3; gradient (min/%B) 0/0 1/0 12.5/100 14/100 14.2/0 15/0
[2] = RP, 150 × 2.1 mm, 2.6 µm, 40 °C, 0.35 mL/min, estimated dead time 0.94 min; A: water + 0.1% formic acid, pH 3; B: acetonitrile + 0.1% formic acid, pH 3; gradient (min/%B) 0/0 1/5 7/45 8.5/80 10.5/80 11/5 12/5
[3] = RP, Phenomenex Kinetex EVO C18, 100 × 2.1 mm, 2.6 µm, 40 °C, 0.4 mL/min, estimated dead time 0.55 min; A: water + 0.2% formic acid; B: acetonitrile + 0.2% formic acid; gradient (min/%B) 0/5 0.5/5 7/95 8/95 8.5/5 12/5
[4] = RP, Merck Supelco SUPELCOSIL LC-C18, 250 × 4.6 mm, 5 µm, 40 °C, 1 mL/min, estimated dead time 2.6 min; A: water + 0.1% trifluoroacetic acid, pH 2; B: acetonitrile + 0.1% trifluoroacetic acid, pH 2; gradient (min/%B) 0/5 45/35 47/75 49/35 50/5
[5] = RP, Waters Atlantis T3, 100 × 2.1 mm, 3 µm, 40 °C, 0.3 mL/min, estimated dead time 0.73 min; A: water + 0.1% trifluoroacetic acid, pH 2; B: acetonitrile + 0.1% trifluoroacetic acid, pH 2; gradient (min/%B) 0/10 1/10 6/40 7/50 8/50 14/70 16/80 20/10 25/10
[6] = Other, Phenomenex Kinetex PFP, 100 × 4.6 mm, 5 µm, 45 °C, 0.6 mL/min, estimated dead time 1.8 min; A: water + 0.1% trifluoroacetic acid, pH 2; B: methanol; gradient (min/%B) 0/40 20/72 21/40
[7] = RP, Agilent ZORBAX RRHD Eclipse Plus C18, 50 × 2.1 mm, 1.8 µm, 30 °C, 0.4 mL/min, estimated dead time 0.28 min; A: water + 0.1% formic acid, pH 3; B: acetonitrile + 0.1% formic acid, pH 3; gradient (min/%B) 0/1 5/10 8/25 9.1/99 10/99 12/1
[8] = RP, Agilent ZORBAX RRHD Eclipse Plus C18, 50 × 2.1 mm, 1.8 µm, 30 °C, 0.4 mL/min, estimated dead time 0.28 min; A: water + 0.1% formic acid, pH 3; B: acetonitrile + 0.1% formic acid, pH 3; gradient (min/%B) 0/1 5/10 8/25 9.1/99 10/99 12/99
[9] = RP, Phenomenex Synergi Hydro-RP, 250 × 2 mm, 4 µm, 25 °C, 0.2 mL/min, estimated dead time 2.5 min; A: water + 0.1% formic acid, pH 3; B: acetonitrile + 0.1% formic acid, pH 3; gradient (min/%B) 0/0.5 7/0.5 12/12.5 25/16.3 47/35 48/65 50/65 50.1/0.5
[10] = RP, Merck LiChrospher RP-18, 250 × 4 mm, 5 µm, 35 °C, 0.3 mL/min, estimated dead time 6.7 min; A: water + 0.5% formic acid; B: acetonitrile + 0.5% formic acid; gradient (min/%B) 0/5 10/5 30/15 45/20 65/20 95/54 110/63 115/5 135/5
[11] = RP, Waters ACQUITY UPLC BEH Shield RP18, 150 × 2.1 mm, 1.7 µm, 40 °C, 0.4 mL/min, estimated dead time 0.83 min; A: water + 0.1% formic acid, pH 3; B: acetonitrile + 0.1% formic acid, pH 3; gradient (min/%B) 0/0 30/50 31/100 37/100 37.1/0
[12] = RP, Agilent InfinityLab Poroshell 120 EC-C18, 100 × 3 mm, 2.7 µm, 25 °C, 0.4 mL/min, estimated dead time 1.1 min; A: water + 0.1% formic acid, pH 3; B: acetonitrile + 0.1% formic acid, pH 3; gradient (min/%B) 0/5 10/25 20/40 24/90 25/90 26/5 30/5
[13] = RP, Waters ACQUITY UPLC HSS T3, 100 × 2.1 mm, 50 °C; A: water + 0.1% formic acid, pH 3; B: 30% methanol + 70% acetonitrile + 0.1% formic acid, pH 3; gradient (min/%B) 0/5 1/8 2/15 3/40 4/70 4.5/100 5/100 6.4/100 6.6/5 6.8/5 7/5
[14] = RP, Agilent ZORBAX Eclipse XDB-C18, 100 × 2.1 mm, 1.8 µm, 50 °C, 0.4 mL/min, estimated dead time 0.55 min; A: water + 0.1% formic acid, pH 3; B: methanol + 0.1% formic acid, pH 3; gradient (min/%B) 0/2 10/100 14.5/100 14.51/2 16.5/2
[15] = RP, Waters ACQUITY UPLC BEH C18, 100 × 2.1 mm, 1.7 µm, 65 °C, 0.4 mL/min, estimated dead time 0.55 min; A: water + 0.1% formic acid, pH 3; B: 80% acetonitrile + 20% acetone + 0.1% formic acid, pH 3; gradient (min/%B) 0/0 5/100 5.5/0 6/0
[16] = RP, Waters ACQUITY UPLC HSS T3, 100 × 2.1 mm, 1.8 µm, 30 °C, 0.4 mL/min, estimated dead time 0.55 min; A: water + 0.1% formic acid, pH 3; B: acetonitrile + 0.1% formic acid, pH 3; gradient (min/%B) 0/0 2/0 15/100 22/100 22.1/0 26/0
[17] = RP, Phenomenex Luna C18, 150 × 4.6 mm, 3 µm, 25 °C, 0.5 mL/min, estimated dead time 3.2 min; A: water + 0.1% formic acid, pH 3; B: acetonitrile + 0.1% formic acid, pH 3; gradient (min/%B) 0/0 30/30 35/40 50/80 52/80 60/0 65/0
[18] = RP, Waters ACQUITY UPLC BEH Shield RP18, 100 × 2.1 mm, 1.7 µm, 30 °C, 0.6 mL/min, estimated dead time 0.37 min; A: water + 0.1% formic acid, pH 3; B: acetonitrile + 0.1% formic acid, pH 3; gradient (min/%B) 0/0 2/0 7/10 22/95 22.1/0 26/0

LC retention time [1]: 4.7 min | LC retention time [2]: 4.37 min | LC retention time [16]: 8.3 min | LC retention time [14]: 2.85 min | LC retention time [11]: 6.28 min | LC retention time [7]: 4.25 min | LC retention time [8]: 2.82 min | LC retention time [4]: 12.5 min | LC retention time [12]: 5.44 min | LC retention time [9]: 19.9 min
Structure (SMILES): O=C(O)c1cc(O)ccc1O [Gentisic acid]

LC retention time [4]: 23.4 min
Structure (SMILES): OCC1OC(Oc2cc3c(O)cc(O)cc3[o+]c2-c2ccc(O)cc2)C(O)C(O)C1O (centres undefined) [Pelargonidin-3-O-glucoside]

LC retention time [4]: 24.3 min
Structure (SMILES): CC1OC(OCC2OC(Oc3cc4c(O)cc(=O)cc-4oc3-c3ccc(O)cc3)C(O)C(O)C2O)C(O)C(O)C1O (centres undefined) [Pelargonidin-3-O-rutinoside]

LC retention time [4]: 24.8 min
Structure (SMILES): COc1cc(-c2[o+]c3cc(O)cc(O)c3cc2OC2OC(CO)C(O)C(O)C2O)ccc1O (centres undefined) [Peonidin-3-O-glucoside]

LC retention time [4]: 22.3 min
Structure (SMILES): COc1cc(-c2[o+]c3cc(O)cc(O)c3cc2OC2OC(CO)C(O)C(O)C2O)cc(O)c1O (centres undefined) [Petunidin-3-O-glucoside]

LC retention time [3]: 4.92 min | LC retention time [11]: 13.7 min | LC retention time [7]: 7.9 min | LC retention time [8]: 8.38 min | LC retention time [4]: 26.2 min
Structure (SMILES): O=C(O)C1OC(Oc2c(-c3ccc(O)c(O)c3)oc3cc(O)cc(O)c3c2=O)C(O)C(O)C1O (centres undefined) [Quercetin-3-O-glucuronide]

LC retention time [1]: 6.01 min | LC retention time [2]: 6.17 min | LC retention time [4]: 29.4 min | LC retention time [9]: 38.3 min
Structure (SMILES): CC1OC(Oc2c(-c3ccc(O)c(O)c3)oc3cc(O)cc(O)c3c2=O)C(O)C(O)C1O (centres undefined) [Quercitrin]

LC retention time [1]: 5.04 min | LC retention time [2]: 4.88 min | LC retention time [13]: 3.33 min | LC retention time [15]: 1.8 min | LC retention time [4]: 15.5 min | LC retention time [12]: 6.44 min | LC retention time [9]: 23.1 min | LC retention time [5]: 5.12 min
Structure (SMILES): COc1cc(C(=O)O)cc(OC)c1O [Syringic acid]

LC retention time [1]: 6.29 min | LC retention time [2]: 6.36 min | LC retention time [10]: 74.4 min | LC retention time [11]: 12.7 min | LC retention time [7]: 8.32 min | LC retention time [8]: 8.67 min | LC retention time [4]: 25.9 min | LC retention time [9]: 37.5 min
Structure (SMILES): O=C(O)C=Cc1ccccc1O [o-Coumaric acid]

More lines, now with the values behind:

Structure (SMILES): O=C(OC1Cc2c(O)cc(O)cc2OC1c1cc(O)c(O)c(O)c1)c1cc(O)c(O)c(O)c1 (single isomer, unassigned; (-)) [(-)-Epigallocatechin gallate]
LC retention time [1]: 5.08 min | LC retention time [2]: 5.02 min | LC retention time [3]: 4.38 min | LC retention time [4]: 16.9 min | LC retention time [5]: 6.14 min

Structure (SMILES): O=C(C=Cc1ccc(O)c(O)c1)OC1CC(OC(=O)C=Cc2ccc(O)c(O)c2)(C(=O)O)CC(O)C1O (centres undefined) [1,3-dicaffeoylquinic acid]
LC retention time [4]: 19.1 min

Structure (SMILES): O=C(O)c1ccc(O)c(O)c1O [2,3,4-Trihydroxybenzoic acid]
LC retention time [6]: 4.34 min | LC retention time [4]: 8.9 min

Structure (SMILES): O=C(O)c1cccc(O)c1 [3-Hydroxybenzoic acid]
LC retention time [6]: 5.57 min | LC retention time [7]: 5.36 min | LC retention time [8]: 4.26 min | LC retention time [9]: 22.7 min | LC retention time [5]: 5.01 min

Structure (SMILES): O=c1cc(-c2ccc(O)cc2)oc2cc(O)cc(O)c12 [Apigenin]
LC retention time [10]: 97 min | LC retention time [11]: 23.6 min | LC retention time [4]: 43.2 min | LC retention time [12]: 16.3 min | LC retention time [5]: 10.1 min

Structure (SMILES): O=c1cc(-c2ccccc2)oc2cc(O)cc(O)c12 [Chrysin]
LC retention time [4]: 39.4 min | LC retention time [12]: 22.2 min

Structure (SMILES): O=C(O)C=Cc1ccccc1 [Cinnamic acid-trans]
LC retention time [13]: 2.74 min | LC retention time [10]: 92.9 min | LC retention time [14]: 6.27 min | LC retention time [15]: 2.79 min | LC retention time [11]: 16.2 min | LC retention time [7]: 9.09 min | LC retention time [4]: 35.6 min | LC retention time [9]: 46.7 min

Structure (SMILES): O=C(C=Cc1ccc(O)c(O)c1)OC1C(O)CC(O)(C(=O)O)CC1O (centres undefined) [Cryptochlorogenic acid]
LC retention time [1]: 4.63 min | LC retention time [2]: 4.45 min | LC retention time [4]: 14.1 min

Structure (SMILES): OCC1OC(Oc2cc3c(OC4OC(CO)C(O)C(O)C4O)cc(O)cc3[o+]c2-c2ccc(O)c(O)c2)C(O)C(O)C1O (centres undefined) [Cyanidin-3,5-O-diglucoside]
LC retention time [4]: 16.4 min

Structure (SMILES): O=c1c(-c2ccc(O)cc2)coc2cc(O)ccc12 [Daidzein]
LC retention time [16]: 10.7 min | LC retention time [15]: 2.53 min | LC retention time [11]: 17.9 min | LC retention time [4]: 34.6 min | LC retention time [12]: 12.9 min

Structure (SMILES): O=c1cc2oc(-c3cc(O)c(O)c(O)c3)c(O)cc-2c(O)c1 [Delphinidin]
LC retention time [6]: 8.44 min | LC retention time [4]: 25.1 min

Structure (SMILES): O=c1oc2c(O)c(O)cc3c(=O)oc4c(O)c(O)cc1c4c23 [Ellagic acid]
LC retention time [17]: 14.2 min | LC retention time [10]: 60.3 min | LC retention time [15]: 1.91 min | LC retention time [18]: 13.1 min | LC retention time [4]: 24.8 min | LC retention time [12]: 8.97 min | LC retention time [5]: 7.94 min

Structure (SMILES): O=C(OC1Cc2c(O)cc(O)cc2OC1c1ccc(O)c(O)c1)c1cc(O)c(O)c(O)c1 (centres undefined) [Epicatechin gallate]
LC retention time [6]: 5.76 min | LC retention time [1]: 5.67 min | LC retention time [2]: 5.72 min | LC retention time [10]: 58.6 min | LC retention time [16]: 9.36 min

Structure (SMILES): O=C1CC(c2ccc(O)c(O)c2)Oc2cc(O)cc(O)c21 (centres undefined) [Eriodictyol]
LC retention time [6]: 15.4 min | LC retention time [1]: 6.95 min | LC retention time [2]: 7.21 min | LC retention time [10]: 88.7 min | LC retention time [16]: 10.9 min | LC retention time [15]: 2.59 min | LC retention time [12]: 13.7 min

Structure (SMILES): O=c1c(O)c(-c2ccc(O)c(O)c2)oc2cc(O)ccc12 [Fisetin]
LC retention time [16]: 10.2 min | LC retention time [4]: 30.9 min
